{
  "source": "paper PMC6433934",
  "about": "“Preclinical Evaluation of Bispecific Adaptor Molecule Controlled Folate Receptor CAR-T Cell Therapy With Special Focus on Pediatric Malignancies” (Frontiers in Oncology, 2019)",
  "key": {"E2-CAR-T cells": {"tested_on": "E2-CAR-T cells", "test": "3H-EC17 radioligand binding to effector cells", "parameters": "species or system human", "conditions": "^3H-EC17, E2-CAR-T cells ~100% EGFRt+, 1:1 CD8/CD4, 1.5 h room temperature, estimated from specific binding curve", "method": "The bispecific affinities of EC17 CAM were assessed using ^3H-EC17 in cell-based radioligand binding assays. For binding to FR+ targets, KB and CHO-β cells were pre-seeded overnight in 24-well tissue culture plates and incubated with 0.1, 0.5, 1, 5, 10, 20, and 40 nM of ^3H-EC17 in FFRPMI for 2 h at 37°C. Afterwards, the cells were rinsed with phosphate-buffered saline (PBS, pH 7.4) and lysed with 1% sodium dodecyl sulfate. The whole cell lysates were quantitated for the level of radioactivity and cellular protein content by standard Pierce BCA protein assay. The number of ^3H-EC17 molecules bound per cell was calculated to determine the dissociation constants (Kd) for FRα (KB) and FRβ (CHO-β), respectively. […] Afterwards, the cells were washed 4x with PBS, lysed with 0.1% Triton X-100 plus 0.1 N NaOH and counted in a scintillation counter. The specific binding curve was generated by subtracting non-specific binding (^3H-EC17 plus “cold” EC17) from total binding (^3H-EC17) at each concentration of the radioligand."}, "HOS-FRα": {"tested_on": "HOS-FRα", "test": "EC17 dose response, co-culture with E2-CAR-T cells, LDH specific lysis", "format": "cell-based, human", "text": "(§1) To investigate EC17 CAM action in vitro, pure EGFRt-sorted CD4 and CD8 CAR-T cells were admixed in a 1:1 ratio and matching mock-transduced T cells were included per experimental design. Other than FR+/- isogenic pairs of AML and osteosarcoma cell lines, we added KB, MDA-MB-231 and OV90 to represent different histological tumor types and FR expression levels. All FR+ target cell lines were subjected to a direct ^3H-FA binding assay to quantitate the number of FR molecules bound/cell ([38]). Prior to co-culture experiments, cryopreserved CAR-T cells were allowed to recover for 2–3 days in T cell culture medium. All effector and target cells were pre-washed with FFRPMI to remove any exogenous FA that could compete against EC17. Short-term co-culture studies of ≤ 3 days were carried out in FFRPMI without adding any exogenous cytokines.\n(§2) For an EC17 dose response study, FR+ cancer cell lines (KB, MDA-MB-231, HOS-FRα, THP1-FRβ, OV90) were co-cultured with EGFRt-sorted E2-CAR-T cells at an effector-to-target (E/T) ratio of 1:1 in the presence of EC17 ranging from 0.1 pM to 100 μM in 10-fold increments. After 24 h of co-culture, supernatants were harvested to determine target cell killing by Promega's CytoTox 96® LDH assay kit and expressed as specific lysis (%) normalized to basal levels in the absence of EC17. To study the kinetics of T cell activation and FR correlation in vitro, co-cultures were carried out in FR+/- cell lines at varying E/T ratios (1:27, 1:9, 1:3, 1:1, 3:1) in the continuous presence of 10 nM EC17. The kinetics of target cell killing (i.e., % specific lysis) were quantified after 16 and 48 h of co-culture and normalized to basal levels in the absence of EC17 at defined E/T ratios. Meanwhile, a portion of the supernatants was taken after 44 h of co-culture for measurement of IFNγ, IL-2, and TNFα. The LEGENDplex™ human Th1 cytokine panel (BioLegend, San Diego, CA) was used to determine CAR-T cell derived cytokines."}, "MDA-MB-231": {"tested_on": "MDA-MB-231", "test": "EC17 dose response, co-culture with E2-CAR-T cells, LDH specific lysis", "format": "cell-based, human", "conditions": "MDA-MB-231, E/T 1:1, 24 h co-culture", "text": "as §1, §2"}, "HOS-FRα tumors": {"tested_on": "HOS-FRα tumors", "test": "Osteosarcoma study, subcutaneous xenografts, EC17 dose escalation", "format": "in vivo", "method": "All animal care and use were performed according to NIH guidelines and in compliance with protocols approved by the Purdue University Animal Use and Care Committee. Female 4 to 5-weeks-old NOD/SCID gamma (NSG™) mice (stock number: 005557) were purchased from The Jackson Laboratory (Bar Harbor, ME). Unless specifically indicated, all animals were maintained on a FA-deficient diet (TestDiet, St. Louis, MO) upon arrival and throughout the study. To establish subcutaneous xenografts, MDA-MB-231 and HOS-FRα were implanted in the right flank region at 2.5 × 10^6 and 1 × 10^6 cells per animal, respectively. For intravenous xenografts, THP1-FRβ cells were inoculated at 5 × 10^6 cells per animal. Subcutaneous tumors were measured 2–3 times per week with a caliper and calculated using the ellipsoidal formula (length x width^2)/2. […] All animal doses (CAR-T cells, EC17, sodium fluorescein) were given intravenously.\nFor osteosarcoma study, two cohorts of mice were subcutaneously implanted with HOS-FRα tumor cells 3 days prior to receiving ~6 million of the same CAR-T cell preparation used in the THP1-FRβ study. At ~3.5 days post CAR-T cell infusion, one cohort of mice was given up to 3 cycles of EC17 at 5/10/100 nmol/kg in Cycle 1, 5/30/300 nmol/kg in Cycle 2, and 5/50/500 nmol/kg in Cycle 3, all following the Monday/Thursday/Monday regimen with a 6 day break in-between cycles. At the end of study, circulating CD3ε+ EGFRt+ CAR-T cells per 100 μL of mouse blood were enumerated. HOS-FRα tumors (+/- EC17 treatment) were also harvested and digested for flow cytometric analysis of tumor-infiltrating CAR-T cells.\nDepending on the CAR-T cell dose and how EC17 is administered, tumor-bearing mice receiving FITC-specific CAR-T cells can experience severe CRS and varying degrees of body weight loss ([27], [33], [34]). Therefore, we developed a CRS grading system (0–5 scale) to empirically assess CRS toxicity from animals' gross morphology and social behavior to allow for better timing of CRS rescue. While grades 0 and 5 indicated normal (no CRS) or death (due to severe CRS), respectively, grades 1, 2, and 3–4 were considered mild, light-to-moderate, and severe CRS. In addition, all EC17 doses were intentionally given toward the end of any given day to allow potential CRS symptoms to develop overnight. On the days immediately following each EC17 dose, animals were scored and rescue agents such as sodium fluorescein, folic acid and leucovorin were used to mitigate CRS toxicity ([33]). In this particular instance, a batch of E2-CAR-T cells with a high EGFRt+ CD4/CD8 ratio (~93:7) was given to HOS-FRα tumor-bearing mice at a mixture of ~2.5 million CD8 and ~33 million CD4 on day 0. […]"}},
  "data": [
    {"compound": "Nc1nc2ncc(CNc3ccc(C(=O)NC(CCC(=O)NCCNC(=S)Nc4ccc(-c5c6ccc(=O)cc-6oc6cc(O)ccc56)c(C(=O)O)c4)C(=O)O)cc3)nc2c(=O)[nH]1", "note": "(stereo not drawn) [EC17, FA-(γ)-ethylenediamine-FITC]", "values": [
      {"measurement": "Kd", "setting": "E2-CAR-T cells", "result": "~142", "unit": "nM"},
      {"measurement": "Max. lysis", "setting": "HOS-FRα; E/T 1:1, 24 h co-culture", "result": 18, "unit": "%"},
      {"measurement": "EC50", "setting": "HOS-FRα; Homo sapiens, EC17, E/T 1:1, 24 h co-culture, curve fitted up to 100 nM", "result": 0.03, "unit": "nM"},
      {"measurement": "EC50", "setting": "MDA-MB-231; Homo sapiens, curve fitted up to 100 nM", "result": 0.0045, "unit": "nM"},
      {"measurement": "Max. lysis", "setting": "MDA-MB-231", "result": 45, "unit": "%"},
      {"measurement": "safety (CRS, body weight)", "setting": "HOS-FRα tumors; EC17 M/Th/M escalation 5/10/100, 5/30/300, 5/50/500 nmol/kg, ~6 million E2-CAR-T cells", "result": "no CRS or body weight loss"},
      {"measurement": "tumor growth", "setting": "HOS-FRα tumors; EC17 M/Th/M escalation, within the first two cycles, ~6 million E2-CAR-T cells", "result": "significant delay in tumor growth"},
      {"measurement": "cures", "setting": "HOS-FRα tumors; HOS-FRα xenografts, EC17 plus E2-CAR-T cells", "result": "no cures"},
      {"measurement": "intratumoral CD3ε+ EGFRt+ CAR-T cell population", "setting": "HOS-FRα tumors; day 33, EC17-treated animals", "result": "~ 1 % total viable digested tumor-derived cells"}
    ]}
  ]
}
